In US6387956B1, “Methods of treating obsessive-compulsive spectrum disorders” (University of Cincinnati, priority 1999, dated 2002):
Structures can show the parent of a compound that is named as a salt.

How the values were obtained:
Tourette's syndrome = experiment: Example 4: case of a patient with major depressant disorder and Tourette's syndrome, motor tics; type: in vivo; settings: 50 mg twice a day added to bupropion
Experimental: A patient with a history of recurrent major depressant disorder was treated with extended release bupropion (1-(3-chlorophenyl)-2-[(1,1-dimethylethyl)amino]-1-[…]), at a total dose of 300 mg per day (200 mg in the morning and 100 mg in the evening). […] The patient also reported a history of purging. […] The patient was diagnosed as having major depressant disorder and Tourette's syndrome.
The bupropion was supplemented with 50 mg twice a day of tramadol. […] The patient estimated that the number of tics was reduced by about two-thirds after starting the tramadol. The patient's bupropion dose was increased to 400 mg per day (200 mg twice a day), while the tramadol dose was maintained at 50 mg twice a day. The patient was informed the tramadol dose could be increased to 50 mg four times a day if the number of tics increased.

[1] = tested on: SRI-treatment refractory OCD; experiment: Six week tramadol hydrochloride treatment of SRI-refractory OCD patients, assessed with Y-BOCS, HAM-D and CGI; type: in vivo
Experimental: (§1) Exclusion criteria for the study included a life-time DSM-IV diagnosis of mania, psychotic disorder, alcohol or substance abuse or dependence, prior history of hypersensitivity to tramadol or any other opioid, a history of seizures, including childhood febrile seizures, and any clinically relevant abnormal laboratory results or clinically unstable medical conditions. […] The patients were not concurrently receiving behavioral therapy.
(§2) Patients were evaluated using the Yale-Brown Obsessive Compulsive Scale (Y-BOCS), the Hamilton Rating Scale for Depression (HAM-D) and the Clinical Global Impression Scale (CGI). Subsequent to screening, the individuals received a six week treatment with tramadol hydrochloride. The tramadol hydrochloride was initially administered at 50 mg four times a day for the first week. If there was less than a 20% drop in baseline Y-BOCS scores by the end of week one, the tramadol hydrochloride dose was advanced slowly over 1 to 2 weeks to a maximum of 400 mg per day in 3 to 5 divided doses. Weekly measurements with the Y-BOCS, HAM-D and CGI were used to assess responses. Y-BOCS and HAM-D values at the start and end of the trial were compared using the Wilcoxon signed-ranks test.
The mean ± standard deviation dose of tramadol hydrochloride for the six patients completing at least two weeks was 254±119 mg/day (divided into from 3 to 5 doses). The mean ± standard deviation of baseline and endpoint Y-BOCS, HAM-D and severity of illness CGI and global improvement CGI are set forth below in Table 1. […] The scores for the patient who dropped out in week 6 were carried forward from week 5.

[2] = Weight and appetite during the six week tramadol hydrochloride study; type: in vivo, patients
Experimental: as §1, §2
Weekly mean ± standard deviation of weight and tramadol doses for the patients are set forth below in Table 2, while weights and tramadol hydrochloride doses for individual patients are set forth in Table 3. For data analysis purposes, when an individual's weight was not available, the weight from the previous week was carried forward.

OCD = experiment: Example 2: case of a person with OCD, Y-BOCS; type: in vivo, patient
Experimental: The tramadol hydrochloride therapy was then supplemented with 20 mg per day of fluoxetine, and three weeks later the fluoxetine was increased to 40 mg daily.

[3] = Example 3: weight of a OCD patient during 11 months of tramadol hydrochloride; type: in vivo
Experimental: A OCD patient was treated with tramadol hydrochloride for a total of 11 months, during the last month of the study the patient was titrated off the tramadol hydrochloride. The only additional prescribed medication was alendronic acid ((4-amino-1-hydroxybutylidene)bisphosphonic acid) started at week 6 for osteoporosis unrelated to tramadol use. (The patient has a family history of osteoporosis and previous steroid use.) The patient's weight and tramadol hydrochloride doses are set forth in Table 4 below.

[4] = during tramadol hydrochloride treatment

## COc1cccc([C@]2(O)CCCC[C@H]2CN(C)C)c1 (racemic) [tramadol, (±)cis-2-[(dimethylamino)methyl]-1(3-methoxyphenyl) cyclohexanol]
Tourette's syndrome
  side effects: without any side effects

## COc1cccc(C2(O)CCCCC2CN(C)C)c1 (mixture of isomers) [tramadol hydrochloride, (±) cis-2-[(dimethylamino)methyl]-1(3-methoxyphenyl)cyclohexanolhydrochloride]
[1]; 3 patients stopping tramadol hydrochloride without adding another agent, followed for two weeks
  withdrawal Y-BOCS score, average, after withdrawal: 19.7
[1]; 3 patients stopping tramadol hydrochloride without adding another agent, start of withdrawal
  withdrawal Y-BOCS score, average, at stopping: 14.3
[1]; another patient, during week 6
  adverse event leading to discontinuation: panic attack
[1]; [4]
  Y-BOCS scores during treatment: decreased
  change in HAM-D scores: no significant change
[1]; endpoint of six week treatment, six patients, baseline 5.2 ± 0.8, 2=much improved, 3=minimally improved, 4=no change
  Global Improvement CGI, mean ± SD, ENDPOINT: 2.3 ± 1.0
[1]; endpoint of six week treatment, six patients, baseline 5.3 ± 1.5, 4=moderately ill, 5=markedly ill, 6=severely ill
  Severity of Illness CGI, mean ± SD, ENDPOINT: 4.5 ± 1.2
[1]; endpoint of six week treatment, six patients, baseline 27.7 ± 15.9
  HAM-D, mean ± SD, ENDPOINT: 28.8 ± 9.8
[1]; obsessions persisted in a muted form
  urges or pressures to perform the compulsions, patient reported: diminished
[1]; one patient, during week 1
  adverse event leading to discontinuation: nausea and exacerbation of trichotillomania
[1]; three of the seven patients, rapid onset of response
  decrease in Y-BOCS scores within the first week: greater than 6 point
[1]; two individuals, first 50 mg dose
  compulsive urges after the first dose: alleviation
[2]; Week 1, seven patients, baseline 173.36 ± 29.58
  Weight, mean ± SD: 172.46 ± 29.9 lbs
[2]; Week 2, seven patients
  Weight, mean ± SD: 170.39 ± 29.1 lbs
[2]; Week 3, seven patients
  Weight, mean ± SD: 170.5 ± 29.64 lbs
[2]; Week 4, seven patients
  Weight, mean ± SD: 169.46 ± 28.62 lbs
[2]; Week 5, seven patients
  Weight, mean ± SD: 169.1 ± 28 lbs
[2]; Week 6, seven patients
  Weight, mean ± SD: 167.5 ± 26.54 lbs
[2]; seven patients, six week treatment
  weight lost on average: 5.86 pounds
[2]; six week treatment
  appetite, patient reported: decreased appetite
OCD; 50 mg twice a day
  time to reported decrease in obsessions and compulsions: ≤ 24 h
OCD; after one week of treatment, score prior to treatment 26
  Y-BOCS score: 19
[3]; Month 3, 350 mg/day for 2 weeks, followed by 400 mg/day
  Weight: 127.0 lbs
[3]; Month 4, 400 mg/day
  Weight: 124.5 lbs
[3]; Month 5, 400 mg/day
  Weight: 124.75 lbs
[3]; Month 6, 400 mg/day, alendronic acid started
  Weight: 124.5 lbs
[3]; Month 7, 400 mg/day
  Weight: 127.0 lbs
[3]; Month 8, 400 mg/day
  Weight: 125.0 lbs
[3]; Month 9, 300 mg/day
  Weight: 128.0 lbs
[3]; Month 10, 150 mg/day
  Weight: 127.5 lbs
[3]; Month 11, 100 mg/day for 2 weeks, 50 mg/day for 1 week, then discontinued
  Weight: 131.5 lbs
[3]; Week 2, 300 mg/day, baseline 129.5
  Weight: 128.25 lbs
[3]; Week 3, 400 mg/day
  Weight: 127.0 lbs
[3]; Week 4, 400 mg/day
  Weight: 127.25 lbs
[3]; Week 6, 300 mg/day
  Weight: 126.0 lbs
[3]; Week 7, 300 mg/day
  Weight: 126.3 lbs
[3]; Week 8, 300 mg/day
  Weight: 126.0 lbs
[3]; after the tramadol hydrochloride treatment was discontinued
  weight after treatment was discontinued: regained
[3]; during the tramadol hydrochloride treatment
  effect on weight during treatment: lost weight
